Measurements as given in US10941157B2, “Pesticidal compositions and uses thereof” (Gilead Apollo, LLC, priority 2015, dated 2021).
In brackets after ≈: the same amount, converted by molar mass.

Legend:
Type in all cases: cell-based
[1] = system: Diplodia maydis (Dm); assay: In vitro pathogen growth inhibition assay, Dm; conditions: Stenocarpella maydis, 48 h, ≥90% inhibition; 48 hours vs 2% DMSO control; read-out: Compound Concentration (ppm) sufficient for ≥90% inhibition of growth, Dm
Outline: (§1)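 Spores of Dm, Fv and Pc were diluted in 17% V8 liquid medium; Rs used 1.5 mm mycelial plugs in ¼ PDB. Compounds from 2.5 mg/ml DMSO stocks were combined with inoculum, growth was read by OD600 at 24 and 48 h with blank subtraction, and the reported value is the concentration giving ≥90% inhibition.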

[2] = system: Phytophthora capsici (Pc); assay: In vitro pathogen growth inhibition assay, Pc; conditions: 48 h, ≥90% inhibition, 48 hours vs 2% DMSO control, read-out: Compound Concentration (ppm) sufficient for ≥90% inhibition of growth, Pc
Outline: as §1

[3] = system: Collectotrichum graminicola (Cg); assay: In vitro pathogen growth inhibition assay, Cg; conditions: 48 h, ≥90% inhibition; 48 hours vs 2% DMSO control; read-out: Compound Concentration (ppm) sufficient for ≥90% inhibition of growth, Cg
Outline: (§2)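 Spores in 17% V8 liquid medium, or 1.5 mm Rs mycelial plugs in ¼ PDB, incubated with compound; final concentration checked by OD600 for precipitation. OD readings at 24 and 48 h, blank-subtracted, plus visual ratings; value is concentration giving ≥90% growth inhibition.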

[4] = system: Fusarium virguliforme (Fv); assay: In vitro pathogen growth inhibition assay, Fv; conditions: ≥90% inhibition, 48 hours vs 2% DMSO control, read-out: Compound Concentration (ppm) sufficient for ≥90% inhibition of growth, Fv
Outline: as §1

[5] = system: Fusarium moniliforme (Fm); assay: In vitro pathogen growth inhibition assay, Fm; conditions: Fusarium verticillioides; ≥90% inhibition; 48 hours vs 2% DMSO control; read-out: Compound Concentration (ppm) sufficient for ≥90% inhibition of growth, Fm
Outline: as §2

[6] = system: Botrtyis cinerea (Bc); assay: In vitro pathogen growth inhibition assay, Bc; conditions: 48 h, ≥90% inhibition; 48 hours vs 2% DMSO control; read-out: Compound Concentration (ppm) sufficient for ≥90% inhibition of growth, Bc
Outline: as §2

[7] = system: Rhizoctonia solani (Rs); assay: In vitro pathogen growth inhibition assay, Rs (mycelial plugs); conditions: Rhizoctonia solani, 48 h, ≥90% inhibition; mycelial plugs; 48 hours vs 2% DMSO control; read-out: Compound Concentration (ppm) sufficient for ≥90% inhibition of growth, Rs
Outline: as §1

[8] = system: Septoria tritici (St); assay: In vitro pathogen growth inhibition assay, St; conditions: Zymoseptoria tritici, 48 h, ≥90% inhibition; 48 hours vs 2% DMSO control; read-out: Compound Concentration (ppm) sufficient for ≥90% inhibition of growth, St
Outline: as §2

IC90 [1] | IC90 [2] | IC90 [3] | IC90 [4] | IC90 [5] | IC90 [6] | IC90 [7] | IC90 [8] | Compound
2 µg/mL (≈ 3.49 µM) | > 50 µg/mL | 10 µg/mL (≈ 17.5 µM) | 0.4 µg/mL (≈ 0.698 µM) | 0.4 µg/mL (≈ 0.698 µM) | 0.4 µg/mL (≈ 0.698 µM) | ≥ 0.4 µg/mL | > 50 µg/mL | COc1ccc(F)cc1[C@H](Cn1c(=O)n(C(C)(C)C(=O)N(C)C)c(=O)c2c(C)c(-n3nccn3)sc21)OC(C)C [Compound I-131]
10 µg/mL (≈ 17.9 µM) | > 50 µg/mL | ≥ 2 µg/mL | 0.4 µg/mL (≈ 0.716 µM) | 0.4 µg/mL (≈ 0.716 µM) | 2 µg/mL (≈ 3.58 µM) | ≥ 2 µg/mL | > 50 µg/mL | CNC(=O)C(C)(C)n1c(=O)c2c(C)c(-n3nccn3)sc2n(C[C@H](OC(C)C)c2cc(F)ccc2OC)c1=O [Compound I-132]
2 µg/mL (≈ 3.25 µM) | 50 µg/mL (≈ 81.3 µM) | 0.4 µg/mL (≈ 0.651 µM) | 0.4 µg/mL (≈ 0.651 µM) | 0.4 µg/mL (≈ 0.651 µM) | 2 µg/mL (≈ 3.25 µM) | ≥ 2 µg/mL | ≥ 50 µg/mL | COc1ccc(F)cc1[C@H](Cn1c(=O)n(C(C)(C)C(=O)N2CCCC2)c(=O)c2c(C)c(-n3nccn3)sc21)OC[C@H](C)O [Compound I-133]
≥ 2 µg/mL | ≥ 10 µg/mL | 0.4 µg/mL (≈ 0.665 µM) | 2 µg/mL (≈ 3.32 µM) | 0.4 µg/mL (≈ 0.665 µM) | 2 µg/mL (≈ 3.32 µM) | ≥ 0.4 µg/mL | ≥ 10 µg/mL | COc1ccc(F)cc1[C@H](Cn1c(=O)n(C(C)(C)C(=O)NC(C)C)c(=O)c2c(C)c(-n3cccn3)sc21)OC[C@@H](C)O [Compound I-134]
≥ 10 µg/mL | > 50 µg/mL | 10 µg/mL (≈ 16.3 µM) | 2 µg/mL (≈ 3.26 µM) | 0.4 µg/mL (≈ 0.652 µM) | 2 µg/mL (≈ 3.26 µM) | ≥ 2 µg/mL | 50 µg/mL (≈ 81.5 µM) | COc1ccc(F)cc1[C@H](Cn1c(=O)n(C(C)(C)C(=O)N2CCCC2)c(=O)c2c(C)c(-n3cccn3)sc21)OC[C@@H](C)O [Compound I-135]
≥ 10 µg/mL | > 50 µg/mL | 10 µg/mL (≈ 16.6 µM) | 2 µg/mL (≈ 3.32 µM) | 0.4 µg/mL (≈ 0.665 µM) | 2 µg/mL (≈ 3.32 µM) | ≥ 2 µg/mL | > 50 µg/mL | COc1ccc(F)cc1[C@H](Cn1c(=O)n(C(C)(C)C(=O)NC(C)C)c(=O)c2c(C)c(-n3cccn3)sc21)OC[C@H](C)O [Compound I-136]
≥ 2 µg/mL | ≥ 50 µg/mL | 2 µg/mL (≈ 3.25 µM) | ≥ 0.4 µg/mL | 0.4 µg/mL (≈ 0.65 µM) | 2 µg/mL (≈ 3.25 µM) | ≥ 2 µg/mL | ≥ 10 µg/mL | COc1ccc(F)cc1[C@H](Cn1c(=O)n(C(C)(C)C(=O)NC(C)C)c(=O)c2c(C)c(-n3cccn3)sc21)OCC(C)(C)O [Compound I-137]
≥ 10 µg/mL | > 50 µg/mL | 10 µg/mL (≈ 15.9 µM) | 10 µg/mL (≈ 15.9 µM) | 0.4 µg/mL (≈ 0.637 µM) | 10 µg/mL (≈ 15.9 µM) | ≥ 2 µg/mL | > 50 µg/mL | COc1ccc(F)cc1[C@H](Cn1c(=O)n(C(C)(C)C(=O)N2CCCC2)c(=O)c2c(C)c(-n3cccn3)sc21)OCC(C)(C)O [Compound I-138]
10 µg/mL (≈ 16.6 µM) | 50 µg/mL (≈ 83.2 µM) | 10 µg/mL (≈ 16.6 µM) | 0.4 µg/mL (≈ 0.666 µM) | 0.4 µg/mL (≈ 0.666 µM) | 2 µg/mL (≈ 3.33 µM) | 2 µg/mL (≈ 3.33 µM) | 50 µg/mL (≈ 83.2 µM) | COCCO[C@@H](Cn1c(=O)n(C(C)C(=O)N2CCCC2)c(=O)c2c(C)c(-n3nccn3)sc21)c1cc(F)ccc1OC (stereo partly shown) [Compound I-139]
10 µg/mL (≈ 16.6 µM) | > 50 µg/mL | 10 µg/mL (≈ 16.6 µM) | 0.4 µg/mL (≈ 0.666 µM) | 0.4 µg/mL (≈ 0.666 µM) | 2 µg/mL (≈ 3.33 µM) | 2 µg/mL (≈ 3.33 µM) | > 50 µg/mL | COCCO[C@@H](Cn1c(=O)n([C@H](C)C(=O)N2CCCC2)c(=O)c2c(C)c(-n3nccn3)sc21)c1cc(F)ccc1OC [Compound I-140]
2 µg/mL (≈ 3.41 µM) | > 50 µg/mL | ≥ 2 µg/mL | ≥ 2 µg/mL | 0.4 µg/mL (≈ 0.682 µM) | 2 µg/mL (≈ 3.41 µM) | 10 µg/mL (≈ 17 µM) | > 50 µg/mL | COCCO[C@@H](Cn1c(=O)n(CC(=O)N2CCCC2)c(=O)c2c(C)c(-n3nccn3)sc21)c1cc(F)ccc1OC [Compound I-141]
